How the values were obtained:
[1] = target: T1, SMARCA2-HiBiT HeLa cells (protein which is expressed from the SMARCA2 gene) (Homo sapiens, UniProt P51531); experiment: SMARCA2 degradation assay (HiBiT-fusion HeLa cell line, 24 h, luminescence); type: cell-based
T1 construct: protein which is expressed from the SMARCA2 and SMARCA4 genes; host or cells: HeLa (SMARCA2-HiBiT engineered line)
How it was run: (§1)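 HeLa cells carrying HiBiT-tagged SMARCA2 or SMARCA4 were seeded at 8,000 cells/well, allowed to attach overnight at 37° C., then given compounds in a 10-point dilution series (typically 10 μM to 300 pM) for 24 hours at 37° C. Remaining tagged protein was read by HiBiT lytic luminescence, and DC50s came from dose-response curves.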

[2] = target: T2, SMARCA4-HiBiT HeLa cells (protein which is expressed from the SMARCA4 gene) (Homo sapiens, UniProt P51532); experiment: SMARCA4 degradation assay (HiBiT-fusion HeLa cell line, 24 h, luminescence); type: cell-based
T2 construct: protein which is expressed from the SMARCA2 and SMARCA4 genes; host or cells: HeLa (SMARCA4-HiBiT engineered line)
T2 sequence (P51532 whole entry, the tested form may be a part): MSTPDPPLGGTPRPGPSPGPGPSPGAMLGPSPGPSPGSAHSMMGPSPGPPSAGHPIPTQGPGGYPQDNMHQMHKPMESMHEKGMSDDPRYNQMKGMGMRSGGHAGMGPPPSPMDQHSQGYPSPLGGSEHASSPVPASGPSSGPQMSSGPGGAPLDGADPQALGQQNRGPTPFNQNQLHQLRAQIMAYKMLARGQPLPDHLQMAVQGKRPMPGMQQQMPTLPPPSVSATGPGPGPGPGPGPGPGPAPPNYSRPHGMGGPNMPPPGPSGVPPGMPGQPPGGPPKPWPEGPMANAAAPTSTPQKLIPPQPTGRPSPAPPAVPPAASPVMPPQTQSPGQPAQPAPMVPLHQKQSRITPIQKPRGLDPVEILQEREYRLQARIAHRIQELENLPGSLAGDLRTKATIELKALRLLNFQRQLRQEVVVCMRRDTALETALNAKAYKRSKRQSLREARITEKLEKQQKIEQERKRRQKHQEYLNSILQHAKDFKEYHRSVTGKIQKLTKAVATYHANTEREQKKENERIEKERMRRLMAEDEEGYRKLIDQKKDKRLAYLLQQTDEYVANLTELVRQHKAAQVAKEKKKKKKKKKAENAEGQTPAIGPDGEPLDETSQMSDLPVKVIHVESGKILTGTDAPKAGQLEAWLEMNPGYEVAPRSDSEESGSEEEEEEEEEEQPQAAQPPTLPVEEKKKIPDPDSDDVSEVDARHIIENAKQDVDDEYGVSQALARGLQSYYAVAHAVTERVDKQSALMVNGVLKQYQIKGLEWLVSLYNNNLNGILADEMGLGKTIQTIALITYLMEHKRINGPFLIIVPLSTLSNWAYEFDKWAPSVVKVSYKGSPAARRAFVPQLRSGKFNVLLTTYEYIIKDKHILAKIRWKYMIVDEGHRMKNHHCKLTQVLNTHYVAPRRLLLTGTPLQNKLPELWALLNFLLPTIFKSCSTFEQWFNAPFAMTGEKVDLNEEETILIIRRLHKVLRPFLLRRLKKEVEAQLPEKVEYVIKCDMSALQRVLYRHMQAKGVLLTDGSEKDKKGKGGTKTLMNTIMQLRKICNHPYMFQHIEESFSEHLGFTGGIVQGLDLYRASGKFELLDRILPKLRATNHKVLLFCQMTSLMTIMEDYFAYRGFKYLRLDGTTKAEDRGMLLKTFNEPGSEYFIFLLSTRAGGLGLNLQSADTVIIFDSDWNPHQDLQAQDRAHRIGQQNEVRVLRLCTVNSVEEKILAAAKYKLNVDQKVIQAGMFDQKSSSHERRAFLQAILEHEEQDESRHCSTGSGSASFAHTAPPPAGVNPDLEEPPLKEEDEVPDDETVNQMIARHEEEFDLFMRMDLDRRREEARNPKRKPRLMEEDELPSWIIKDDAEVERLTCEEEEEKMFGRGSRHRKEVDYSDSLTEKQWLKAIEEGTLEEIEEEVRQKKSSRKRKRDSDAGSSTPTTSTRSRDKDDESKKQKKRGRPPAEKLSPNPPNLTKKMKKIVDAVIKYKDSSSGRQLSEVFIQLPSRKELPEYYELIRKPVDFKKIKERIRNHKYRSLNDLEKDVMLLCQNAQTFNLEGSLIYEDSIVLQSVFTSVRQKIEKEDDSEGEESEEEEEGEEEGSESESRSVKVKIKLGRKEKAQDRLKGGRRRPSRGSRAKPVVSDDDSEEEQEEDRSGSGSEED
How it was run: as §1

T1 sequence (P51531 whole entry, the tested form may be a part): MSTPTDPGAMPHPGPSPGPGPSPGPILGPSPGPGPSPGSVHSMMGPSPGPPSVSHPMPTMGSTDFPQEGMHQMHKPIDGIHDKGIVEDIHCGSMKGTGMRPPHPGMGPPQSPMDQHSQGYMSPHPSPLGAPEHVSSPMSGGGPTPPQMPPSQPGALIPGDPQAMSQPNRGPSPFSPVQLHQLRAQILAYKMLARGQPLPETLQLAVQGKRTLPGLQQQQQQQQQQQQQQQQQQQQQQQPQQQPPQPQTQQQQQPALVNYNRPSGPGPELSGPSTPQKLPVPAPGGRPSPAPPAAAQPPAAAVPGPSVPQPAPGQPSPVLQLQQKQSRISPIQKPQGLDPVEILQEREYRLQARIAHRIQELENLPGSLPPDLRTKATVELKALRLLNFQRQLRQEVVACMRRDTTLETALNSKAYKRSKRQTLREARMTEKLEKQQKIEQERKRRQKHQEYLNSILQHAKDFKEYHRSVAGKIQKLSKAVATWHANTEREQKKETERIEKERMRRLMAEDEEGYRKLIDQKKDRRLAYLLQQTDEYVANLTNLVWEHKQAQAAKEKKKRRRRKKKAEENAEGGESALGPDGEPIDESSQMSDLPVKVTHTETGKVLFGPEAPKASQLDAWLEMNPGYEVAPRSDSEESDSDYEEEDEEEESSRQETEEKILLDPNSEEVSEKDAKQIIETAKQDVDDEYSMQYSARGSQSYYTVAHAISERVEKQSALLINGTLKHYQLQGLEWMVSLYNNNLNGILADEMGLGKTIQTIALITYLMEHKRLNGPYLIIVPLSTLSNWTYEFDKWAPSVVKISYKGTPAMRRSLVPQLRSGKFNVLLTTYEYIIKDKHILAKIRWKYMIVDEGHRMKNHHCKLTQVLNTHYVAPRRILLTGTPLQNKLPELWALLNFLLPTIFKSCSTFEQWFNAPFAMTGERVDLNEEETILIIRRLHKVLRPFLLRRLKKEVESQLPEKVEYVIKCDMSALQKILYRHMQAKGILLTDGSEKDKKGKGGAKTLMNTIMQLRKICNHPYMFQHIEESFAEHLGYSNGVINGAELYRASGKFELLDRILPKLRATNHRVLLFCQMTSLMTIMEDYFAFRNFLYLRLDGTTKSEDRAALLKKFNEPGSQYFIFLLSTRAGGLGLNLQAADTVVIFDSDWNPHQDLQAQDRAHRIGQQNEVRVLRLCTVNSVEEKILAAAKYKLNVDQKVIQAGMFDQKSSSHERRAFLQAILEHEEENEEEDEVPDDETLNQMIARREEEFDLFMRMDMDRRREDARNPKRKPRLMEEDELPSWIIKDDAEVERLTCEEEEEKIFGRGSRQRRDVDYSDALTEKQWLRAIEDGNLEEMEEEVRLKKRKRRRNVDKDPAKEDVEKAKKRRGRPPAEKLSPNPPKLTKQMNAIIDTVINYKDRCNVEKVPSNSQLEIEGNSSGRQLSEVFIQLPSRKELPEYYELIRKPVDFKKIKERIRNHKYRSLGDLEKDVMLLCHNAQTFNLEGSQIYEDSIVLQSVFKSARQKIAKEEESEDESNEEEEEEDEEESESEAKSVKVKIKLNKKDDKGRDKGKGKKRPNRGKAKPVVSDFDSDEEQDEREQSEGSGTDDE

Structure (SMILES)	DC50 [1] [nM]	SMARCA2 % Degradation @ 1 μM [1]	DC50 [2] [nM]	inhibition at 1 µM [2] [%]
CC(C)(C)OC(=O)NCC#Cc1nccc(N2CCC3CCC(C2)N3c2cc(-c3ccccc3O)nnc2N)n1 (stereo not drawn) [Compound P-267, 3-(4-{9-[3-amino-6-(o-hydroxyphenyl)-4-pyridaziny1]-3,9-diazabicyclo[4.2.1]non-3-yl}-2-pyrimidinyl)-2-propynylamino-tert-butylformylate]	50 to 500	+++ (+++=>70%)	50 to 500	30 to 70
C[C@@H]1CCN(c2cc(-c3ccccc3O)nnc2N)CCN1c1ccnc(C#CCNC(=O)OC2CC/C=C\CCC2)n1 (stereo partly drawn) [Compound P-268, 4-[(R)-4-(2-{3-[(Z)-4-cycloocten-1-yloxycarbonylamino]-1-propynyl}-4-pyrimidinyl)-5-methyl-1,4-diazepan-1-yl]-6-(o-hydroxyphenyl)-3-pyridazinamine]	50 to 500	+++ (+++=>70%)	50 to 500	30 to 70
C[C@@H]1CCN(c2cc(-c3ccccc3O)nnc2N)CCN1c1ccnc(C#CCN2CC(F)(F)[C@@H]2C)n1 [Compound P-270, 0-{5-[(R)-4-(2-{3-[(S)-3,3-difluoro-2-methyl-1-azetidinyl]-1-propyny1}-4-pyrimidinyl)-5-methyl-1,4-diazepan-1-yl]-6-amino-3-pyridaziny1} phenol]	50 to 500	++ (++=30-70%)	50 to 500	30 to 70
C[C@@H]1CCN(c2cc(-c3ccccc3O)nnc2N)CCN1c1ccnc(C#CCN2CC(F)(F)[C@H]2C)n1 [Compound P-271, 0-{5-[(R)-4-(2-{3-[(R)-3,3-difluoro-2-methyl-1-azetidinyl]-1-propynyl}-4-pyrimidinyl)-5-methyl-1,4-diazepan-1-yl]-6-amino-3-pyridazinyl}phenol]	50 to 500	++ (++=30-70%)	50 to 500	< 30

Second part, the compound after the results:

DC50 [1] [nM]	SMARCA2 % Degradation @ 1 μM [1]	DC50 [2] [nM]	inhibition at 1 µM [2] [%]	Structure (SMILES)
50 to 500	++ (++=30-70%)	< 50	< 30	C[C@@H]1CCN(c2cc(-c3ccccc3O)nnc2N)CCN1c1ccnc(C#CCN2CC[C@H]2CF)n1 [Compound P-263, o-{5-[(R)-4-(2-{3-[(S)-2-(fluoromethyl)-1-azetidinyl]-1-propynyl}-4-pyrimidinyl)-5-methyl-1,4-diazepan-1-yl]-6-amino-3-pyridazinyl}phenol]
< 50	++ (++=30-70%)	< 50	30 to 70	C[C@@H]1CCN(c2cc(-c3ccccc3O)nnc2N)CCN1c1ccnc(C#CCN2[C@H](C)C[C@H]2C)n1 [Compound P-264, o-{5-[(R)-4-(2-{3-[(2R,4R)-2,4-dimethyl-1-azetidinyl]-1-propynyl}-4-pyrimidinyl)-5-methyl-1,4-diazepan-1-yl]-6-amino-3-pyridazinyl}phenol]
50 to 500	+++ (+++=>70%)	50 to 500	> 70	C[C@@H]1CCN(c2cc(-c3ccccc3O)nnc2N)CCN1c1ccnc(C#C[C@@H](O)C2CC2)n1 [Compound P-265, o-{5-[(R)-4-{2-[(S)-3-cyclopropyl-3-hydroxy-1-propynyl]-4-pyrimidinyl}-5-methyl-1,4-diazepan-1-yl]-6-amino-3-pyridaziny1} phenol]
50 to 500	+++ (+++=>70%)	50 to 500	30 to 70	C[C@@H]1CCN(c2cc(-c3ccccc3O)nnc2N)CCN1c1ccnc(C#C[C@H](O)C2CC2)n1 [Compound P-266, 0-{5-[(R)-4-{2-[(R)-3-cyclopropyl-3-hydroxy-1-propynyl]-4-pyrimidinyl}-5-methyl-1,4-diazepan-1-yl]-6-amino-3-pyridaziny1} phenol]
50 to 500	+++ (+++=>70%)	50 to 500	> 70	C[C@@H]1CCN(c2cc(-c3ccccc3O)nnc2N)CCN1c1ccnc(C#CC2CC(F)(F)C2)n1 [Compound P-269, 0-{5-[(R)-4-{2-[2-(3,3-difluorocyclobutyl)ethynyl]-4-pyrimidinyl}-5-methyl-1,4-diazepan-1-y1]-6-amino-3-pyridazinyl} phenol]

Source: patent publication US20260265238A1, “COMPOUNDS AND PHARMACEUTICAL COMPOSITIONS THAT DEGRADE SWI/SNF-RELATED MATRIX-ASSOCIATED ACTIN-DEPENDENT REGULATOR OF CHROMATIN SUBFAMILY A” (Plexium, Inc., priority 2023, published 2026)
